Measurements taken from article PMC6124754, “Characterization of new, efficient Mycobacterium tuberculosis topoisomerase-I inhibitors and their interaction with human ABC multidrug transporters” (PLoS ONE, 2018).
Values after ≈ are worked out from the molar mass of the structure shown. “Also recorded” adds a separate entry of the source. Like-named read-outs stand apart in the source and are kept apart here.

Legend:
MtTopo-I = target: T1, MtTopo-I (Mycobacterium tuberculosis, UniProt P9WG49); assay: DNA relaxation assay of supercoiled pUC18 DNA by MtTopo-I; type: biochemical; details: minimum concentration providing complete inhibition
T1 construct: made in house; host or cells: E. coli
T1 sequence (P9WG49 whole entry): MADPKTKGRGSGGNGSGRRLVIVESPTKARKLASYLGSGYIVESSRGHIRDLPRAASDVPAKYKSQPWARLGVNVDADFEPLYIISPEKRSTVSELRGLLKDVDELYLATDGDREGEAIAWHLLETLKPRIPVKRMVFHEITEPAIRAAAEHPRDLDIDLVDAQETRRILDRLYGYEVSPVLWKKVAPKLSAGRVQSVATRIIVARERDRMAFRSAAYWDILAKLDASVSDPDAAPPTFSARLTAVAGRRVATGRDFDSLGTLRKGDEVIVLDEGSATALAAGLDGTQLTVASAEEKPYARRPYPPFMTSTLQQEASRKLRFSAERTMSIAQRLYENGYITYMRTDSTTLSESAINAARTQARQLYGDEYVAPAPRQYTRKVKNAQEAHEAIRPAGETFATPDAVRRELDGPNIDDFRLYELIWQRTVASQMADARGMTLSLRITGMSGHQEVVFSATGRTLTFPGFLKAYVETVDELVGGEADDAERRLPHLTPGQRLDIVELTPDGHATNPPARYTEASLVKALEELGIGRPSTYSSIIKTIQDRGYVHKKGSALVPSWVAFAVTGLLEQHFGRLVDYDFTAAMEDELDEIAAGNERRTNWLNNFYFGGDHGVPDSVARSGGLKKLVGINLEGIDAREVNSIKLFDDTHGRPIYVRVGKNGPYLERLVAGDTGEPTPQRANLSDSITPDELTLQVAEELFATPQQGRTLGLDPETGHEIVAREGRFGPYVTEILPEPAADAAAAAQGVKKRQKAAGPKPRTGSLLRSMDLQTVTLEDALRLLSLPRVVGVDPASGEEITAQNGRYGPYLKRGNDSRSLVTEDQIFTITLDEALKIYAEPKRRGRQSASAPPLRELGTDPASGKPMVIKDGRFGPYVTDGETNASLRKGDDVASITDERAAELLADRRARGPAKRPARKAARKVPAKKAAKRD

H37Rv Mtb strain = assay: H37Rv growth inhibition, resazurin reduction microplate assay (REMA); type: cell-based, Mycobacterium tuberculosis; details: for MIC90: Mycobacterium tuberculosis, H37RV, read-out: MIC90 of compounds in H37Rv growth test; for Toxicity in H37Rv assay (summary): S6 summary table; for Growth inhibition of H37Rv mycobacteria (in words): tested up to 20 μM
human ABCB1 [1] = target: T2, human ABCB1 (Homo sapiens, UniProt P08183); assay: Cellular transport assay, Calcein-AM uptake in ABCB1-overexpressing PLB cells; type: cell-based; details: S6 summary table; further: key: 0: no observed effect; +: effect observed in the assay; In the ATPase assay showing only inhibition, the - sign is applied
T2 sequence (P08183 whole entry): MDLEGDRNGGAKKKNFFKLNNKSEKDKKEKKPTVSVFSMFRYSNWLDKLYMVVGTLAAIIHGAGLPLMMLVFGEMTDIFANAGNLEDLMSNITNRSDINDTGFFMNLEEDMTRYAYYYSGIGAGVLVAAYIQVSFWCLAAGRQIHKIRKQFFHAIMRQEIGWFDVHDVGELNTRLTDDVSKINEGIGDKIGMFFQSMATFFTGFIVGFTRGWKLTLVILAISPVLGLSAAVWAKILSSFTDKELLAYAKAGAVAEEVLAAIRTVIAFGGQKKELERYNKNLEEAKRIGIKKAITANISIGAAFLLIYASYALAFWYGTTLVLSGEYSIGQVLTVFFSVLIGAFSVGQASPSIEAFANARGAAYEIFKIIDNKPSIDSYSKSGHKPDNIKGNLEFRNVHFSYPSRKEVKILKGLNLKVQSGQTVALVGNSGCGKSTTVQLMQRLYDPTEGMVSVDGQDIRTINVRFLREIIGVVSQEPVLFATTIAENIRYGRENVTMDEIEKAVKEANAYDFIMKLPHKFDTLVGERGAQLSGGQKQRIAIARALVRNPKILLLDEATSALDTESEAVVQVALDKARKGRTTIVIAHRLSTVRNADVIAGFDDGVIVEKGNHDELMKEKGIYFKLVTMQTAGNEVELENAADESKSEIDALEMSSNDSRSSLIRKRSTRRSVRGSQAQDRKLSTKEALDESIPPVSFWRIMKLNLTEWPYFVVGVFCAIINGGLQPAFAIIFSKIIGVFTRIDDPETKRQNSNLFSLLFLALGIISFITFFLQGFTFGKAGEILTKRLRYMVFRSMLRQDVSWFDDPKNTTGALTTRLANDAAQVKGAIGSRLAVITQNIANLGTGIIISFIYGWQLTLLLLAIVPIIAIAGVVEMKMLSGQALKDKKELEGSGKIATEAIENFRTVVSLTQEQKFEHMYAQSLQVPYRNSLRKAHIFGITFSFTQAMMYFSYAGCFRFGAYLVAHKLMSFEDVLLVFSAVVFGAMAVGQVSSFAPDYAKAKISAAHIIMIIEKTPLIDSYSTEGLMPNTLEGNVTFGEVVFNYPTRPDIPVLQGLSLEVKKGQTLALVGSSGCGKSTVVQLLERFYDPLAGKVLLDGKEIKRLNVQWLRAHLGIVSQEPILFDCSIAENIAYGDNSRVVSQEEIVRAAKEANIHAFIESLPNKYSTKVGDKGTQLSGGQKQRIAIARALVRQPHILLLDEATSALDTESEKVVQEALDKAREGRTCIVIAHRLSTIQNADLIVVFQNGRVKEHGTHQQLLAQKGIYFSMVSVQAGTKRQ
Protocol: (§1) For cellular transport assays, mammalian PLB (lymphoblastoid) cell lines, overexpressing ABCB1 or ABCG2 were used. The parental PLB cell line was purchased from ATCC, and ABCB1 or ABCG2 overexpressing cell lines were established by using lentiviral vectors for human ABC transporters as described earlier in [29]. The transport assays were carried out in 96-well plates. 1x10^5 cells were incubated in the presence of 0.1 μM Calcein-AM or 1 μM DCV (Dye Cycler Violet) for the ABCB1 and for the ABCG2 assays, respectively. The assay was performed in HPMI medium (NaCl 120 mM, KCl 5 mM, MgCl2 0.4 mM, CaCl2 0.04 mM, HEPES 10 mM, NaHCO3 10 mM, glucose 10 mM, Na2HPO4 5 mM; pH 7.4). Fluorescence of the cells was detected using a Victor X3 plate reader (for Calcein, exc. at 485 nm, em. at 535 nm) or the Enspire 2300 (Perkin Elmer) plate reader (for DCV, exc. at 360 nm, em. at 440 nm). Kinetics of fluorescence intensity changes were analyzed to determine relative inhibition, compared to that of a reference agent, providing full inhibition of the ABC transporter. Two of the Vichem compounds examined (VCC979812 and VCC38977) were not compatible with the DCV uptake assay because of their intrinsic fluorescence, therefore for these two compounds ABCG2 transport inhibition was characterized by following mitoxantrone uptake. Mitoxantrone uptake was measured by flow cytometry (BD FACSCanto at 633 nm) by 20 minutes incubation in the presence of 7.5 μM mitoxantrone. Each compound was measured in at least three independent experiments with three parallels in each case. DMSO, used as a solvent of compounds had no effect in this assay at the applied concentration.

HFF cell line = assay: Cytotoxicity, PrestoBlue 72 h, HFF; type: cell-based, human; details: Non-toxic = not toxic up to 20 μM, read-out: Toxicity in HFF cell line, IC50
Protocol: (§2) The toxic effects of the selected MtTopo-I inhibitory Vichem compounds were tested in three cell lines, HFF (human foreskin fibroblast), HEK293 (human embryonic kidney) and A431 (human epidermoid carcinoma) cell lines, obtained from ATCC. Establishment of ABC transporter-expressing A431cell lines was achieved by retroviral transduction of the cells as described previously.
(§3) For cytotoxicity measurements the cells were seeded in a 96-well culture plate at 5,000 cells/well (A431, HEK293) or 6000 cells/well (HFF) and incubated overnight. […] After 72 hours of incubation viability was assessed by PrestoBlue® assay (Invitrogen). IC50 values were obtained by sigmoidal curve fitting in the GraphPad Prism software. All experiments were performed in triplicates and repeated at least in three independent experiments. DMSO, used as solvent of the compounds, had no effect on viability at the applied concentration.

HEK293 cell line = assay: Cytotoxicity, PrestoBlue 72 h, HEK293; type: cell-based, human; details: for IC50: Homo sapiens, HEK293, Non-toxic = not toxic up to 20 μM, read-out: Toxicity in HEK293 cell line, IC50
Protocol: as §2, §3

parental A431 cell line = assay: Cytotoxicity, PrestoBlue 72 h, parental A431; type: cell-based, human; details: Non-toxic = not toxic up to 20 μM, read-out: Toxicity in parental A431 cell line, IC50
Protocol: as §2, §3

[2] = system: HFF, HEK293 and A431 cell lines; type: cell-based, human
Protocol: as §2, §3

[3] = system: ABCB1-overexpressing A431 cell line; details: 72 h; for Resistance modulation by ABCB1 (fold increase in IC50): ABCB1-expressing versus parental A431 cells; for ABC transporter modified cytotoxicity, ABCB1 (summary): human
[4] = system: ABCG2-overexpressing A431 cell line; details: 72 h; for Resistance modulation by ABCG2 (fold increase in IC50): ABCG2-expressing versus parental A431 cells; for ABC transporter modified cytotoxicity, ABCG2 (summary): human
human ABCB1 [5] = target: T2, human ABCB1; assay: Vanadate-sensitive ATPase activity assay in Sf9 membrane vesicles, ABCB1; type: biochemical; parameters: made in house; host or cells: Sf9 insect cells (baculovirus), membrane vesicles; ABCB1 ATPase Vmax: unit not given here; details: for Effect on ABCB1-ATPase activity (in words): Sf9 membrane vesicles, 0.1–10 μM for the stimulation in b53; for ABCB1 ATPase Vmax: vanadate-sensitive ATPase, from dose-response curves, basal 5.7±0.7; for ABC transporter ATPase assay, ABCB1 (summary): S6 summary table; on ABC transporter ATPase assay, ABCB1 (summary): key: 0: no observed effect; +: effect observed in the assay; In the ATPase assay showing only inhibition, the - sign is applied
human ABCG2 [6] = target: T3, human ABCG2 (Homo sapiens, UniProt Q9UNQ0); assay: Vanadate-sensitive ATPase activity assay in Sf9 membrane vesicles, ABCG2; type: biochemical; parameters: made in house; host or cells: Sf9 insect cells (baculovirus), membrane vesicles; ABCG2 ATPase, concentration at Vmax: unit not given here; details: for ABC transporter ATPase assay, ABCG2 (summary): S6 summary table; for ABCG2 ATPase Vmax: vanadate-sensitive ATPase, from dose-response curves, basal 22±1.4
T3 sequence (Q9UNQ0 1-655): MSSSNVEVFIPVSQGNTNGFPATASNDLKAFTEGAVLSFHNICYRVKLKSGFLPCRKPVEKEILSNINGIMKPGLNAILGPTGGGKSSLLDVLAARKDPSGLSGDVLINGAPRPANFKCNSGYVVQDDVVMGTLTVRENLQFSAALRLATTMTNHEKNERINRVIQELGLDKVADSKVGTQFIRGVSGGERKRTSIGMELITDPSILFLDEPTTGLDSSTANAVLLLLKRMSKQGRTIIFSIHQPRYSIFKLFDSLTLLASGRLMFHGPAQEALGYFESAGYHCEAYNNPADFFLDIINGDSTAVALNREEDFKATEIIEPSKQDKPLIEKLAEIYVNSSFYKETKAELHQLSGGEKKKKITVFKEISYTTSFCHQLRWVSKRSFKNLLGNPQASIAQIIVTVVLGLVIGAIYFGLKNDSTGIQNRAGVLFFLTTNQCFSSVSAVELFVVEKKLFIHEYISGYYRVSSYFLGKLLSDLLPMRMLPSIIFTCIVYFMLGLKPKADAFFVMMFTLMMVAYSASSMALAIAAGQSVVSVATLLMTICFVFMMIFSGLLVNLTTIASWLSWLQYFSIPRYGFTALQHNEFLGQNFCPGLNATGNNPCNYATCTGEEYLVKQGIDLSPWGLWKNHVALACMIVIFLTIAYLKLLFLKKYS

human ABCG2 [7] = target: T3, human ABCG2; assay: Cellular transport assay, DCV or mitoxantrone uptake in ABCG2-overexpressing PLB cells; type: cell-based; parameters: expressed in transfected cells; host or cells: PLB (human lymphoblastoid) cells, lentiviral transduction; details: S6 summary table; further: key: 0: no observed effect; +: effect observed in the assay; In the ATPase assay showing only inhibition, the - sign is applied
Protocol: as §1

[8] = minimum concentration providing 90% growth inhibition, 20 to 0.04 μM, N.I. = no inhibition observed up to 20 μM
[9] = concentration at which Vmax was seen

Row | Compound | Complete inhibition of MtTopoI (MtTopo-I) [µM] | MIC90 (H37Rv Mtb strain; [8]) [µM] | Toxicity in H37Rv assay (summary) (H37Rv Mtb strain) | Growth inhibition of H37Rv mycobacteria (in words) (H37Rv Mtb strain) | ABC transporter transport assay, ABCB1 (summary) (human ABCB1 [1]) | IC50 (HFF cell line; Homo sapiens, HFF) [µM] | IC50 (HFF cell line) [µM] | IC50 (HEK293 cell line) [µM] | IC50 (parental A431 cell line; Homo sapiens, A-431, 72 h) [µM] | IC50 (parental A431 cell line) [µM] | Toxicity in human cell lines (in words) [2] | Toxicity in mammalian cell lines (summary) [2] | Resistance modulation by ABCB1 (fold increase in IC50) [3] | ABC transporter modified cytotoxicity, ABCB1 (summary) [3] | ABC transporter modified cytotoxicity, ABCG2 (summary) [4] | Effect on ABCB1-ATPase activity (in words) (human ABCB1 [5]) | ABCB1 ATPase Vmax (human ABCB1 [5]) | ABC transporter ATPase assay, ABCG2 (summary) (human ABCG2 [6]) | ABCG2 ATPase Vmax (human ABCG2 [6]) | ABC transporter transport assay, ABCG2 (summary) (human ABCG2 [7]) | also measured
1 | CN(C)CCCNc1nc(/C=C/c2ccc(Cl)cc2)nc2cc3ccccc3cc12 [VCC450822] | 10.0 | 5.1 (≈ 2.13 µg/mL) | + | effectively inhibited the growth | 0 | < 5 | 2.5 to 5 | 10 to 20 | < 5 | 3.5 | toxic | + | 0.97±0.05 | 0 | 0 | well measurable stimulatory effect; also recorded: slight stimulation of the ABCB1-ATPase activity at lower concentrations; also recorded: strongly inhibited ATPase activity at higher concentrations; also recorded: slightly increased | 10.5±1.5 | 0 | 23.3±2 | 0 | Resistance modulation by ABCB1 (fold increase in IC50) ([3]; listed as VCC480522): no difference; Resistance modulation by ABCG2 (fold increase in IC50) [4]: 1.0±0.03; Resistance modulation by ABCG2 (fold increase in IC50) ([4]; listed as VCC480522): no difference
2 | CC(C)CCNc1nc2cc3ccccc3cc2nc1NCCC(C)C [VCC979812] | 10 | – | 0 | – | + | 20 | – | – | 19 | – | – | – | 1.1±0.08 | 0 | 0 | well measurable stimulatory effect; also recorded: slightly increased | 15.8±2 | 0 | 22±3 | + | MIC90 of compounds in H37Rv growth test (H37Rv Mtb strain; [8]): N.I.; Toxicity in HEK293 cell line, IC50 (HEK293 cell line; Non-toxic = not toxic up to 20 μM): Non-toxic; Toxicity in mammalian cell lines (summary) ([2]; human, 72 h): 0/slight; Resistance modulation by ABCG2 (fold increase in IC50) [4]: 1±0.1; ABC transporter ATPase assay, ABCB1 (summary) (human ABCB1 [5]): +; ABCB1 ATPase, concentration at Vmax (human ABCB1 [5]; [9]): 12.5 µM; ABCG2 ATPase, concentration at Vmax (human ABCG2 [6]; [9]): 0.4
3 | COc1ccc(/C=C/c2nc(NCCCN(C)C)c3cc4ccccc4cc3n2)cc1 [VCC340963] | 10 to 25 | 2.5 (≈ 1.03 µg/mL) | + | effectively inhibited the growth | + | < 5 | 2.5 to 5 | 10 to 20 | < 5 | 3.23 | toxic | + | – | 0 | 0 | no measurable effect | 7.9±1.2 | 0 | 22.2±4 | + | ABC transporter ATPase assay, ABCB1 (summary) (human ABCB1 [5]): 0; Effect on ABCG2-ATPase activity (in words) (human ABCG2 [6]; Sf9 membrane vesicles, 0.1–10 μM for stimulation, 50 μM for inhibition): no measurable effect
